Laboratory results reported in ChEMBL document CHEMBL5226300, “Synthetic Approaches to the New Drugs Approved during 2019” (J Med Chem, 2021).
pKi: −log10 of the molar value.

Key:
[1] = molecular target: T1, Sodium/glucose cotransporter 2 (Homo sapiens, UniProt P31639); experiment: Inhibition of SGLT2 (unknown origin)
T1 sequence (P31639 whole entry): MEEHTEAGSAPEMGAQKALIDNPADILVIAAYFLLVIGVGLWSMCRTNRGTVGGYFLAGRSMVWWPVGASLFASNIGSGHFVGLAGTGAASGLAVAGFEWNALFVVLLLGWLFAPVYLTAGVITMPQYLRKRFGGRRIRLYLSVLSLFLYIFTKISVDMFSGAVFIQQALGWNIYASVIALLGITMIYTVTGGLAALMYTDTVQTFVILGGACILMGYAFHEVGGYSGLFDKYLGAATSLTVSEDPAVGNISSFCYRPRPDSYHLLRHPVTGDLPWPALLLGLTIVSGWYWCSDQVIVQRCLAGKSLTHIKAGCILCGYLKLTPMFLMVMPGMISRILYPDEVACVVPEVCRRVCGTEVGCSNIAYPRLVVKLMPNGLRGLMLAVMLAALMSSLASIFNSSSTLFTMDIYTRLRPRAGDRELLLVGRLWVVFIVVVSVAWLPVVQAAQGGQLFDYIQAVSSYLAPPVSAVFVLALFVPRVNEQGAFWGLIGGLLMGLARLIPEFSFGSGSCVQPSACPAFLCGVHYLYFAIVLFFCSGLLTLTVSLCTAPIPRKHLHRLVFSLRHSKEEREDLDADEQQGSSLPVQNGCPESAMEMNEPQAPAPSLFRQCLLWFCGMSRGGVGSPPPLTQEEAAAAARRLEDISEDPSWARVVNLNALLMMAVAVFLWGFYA

[2] = Half life in human; type: ADME
[3] = molecular target: Voltage-dependent calcium channel subunit alpha-2/delta-2 (Homo sapiens) (UniProt Q9NY47)
Description: Binding affinity to human alpha2delta2 Voltage-dependent calcium channel assessed as dissociation half life

[4] = molecular target: Voltage-dependent calcium channel subunit alpha-2/delta-1 (Homo sapiens) (UniProt P54289); experiment: Binding affinity to human alpha2delta1 Voltage-dependent calcium channel assessed as dissociation half life
Sequence of Voltage-dependent calcium channel subunit alpha-2/delta-1 (Homo sapiens) (P54289 25-956 limits assumed): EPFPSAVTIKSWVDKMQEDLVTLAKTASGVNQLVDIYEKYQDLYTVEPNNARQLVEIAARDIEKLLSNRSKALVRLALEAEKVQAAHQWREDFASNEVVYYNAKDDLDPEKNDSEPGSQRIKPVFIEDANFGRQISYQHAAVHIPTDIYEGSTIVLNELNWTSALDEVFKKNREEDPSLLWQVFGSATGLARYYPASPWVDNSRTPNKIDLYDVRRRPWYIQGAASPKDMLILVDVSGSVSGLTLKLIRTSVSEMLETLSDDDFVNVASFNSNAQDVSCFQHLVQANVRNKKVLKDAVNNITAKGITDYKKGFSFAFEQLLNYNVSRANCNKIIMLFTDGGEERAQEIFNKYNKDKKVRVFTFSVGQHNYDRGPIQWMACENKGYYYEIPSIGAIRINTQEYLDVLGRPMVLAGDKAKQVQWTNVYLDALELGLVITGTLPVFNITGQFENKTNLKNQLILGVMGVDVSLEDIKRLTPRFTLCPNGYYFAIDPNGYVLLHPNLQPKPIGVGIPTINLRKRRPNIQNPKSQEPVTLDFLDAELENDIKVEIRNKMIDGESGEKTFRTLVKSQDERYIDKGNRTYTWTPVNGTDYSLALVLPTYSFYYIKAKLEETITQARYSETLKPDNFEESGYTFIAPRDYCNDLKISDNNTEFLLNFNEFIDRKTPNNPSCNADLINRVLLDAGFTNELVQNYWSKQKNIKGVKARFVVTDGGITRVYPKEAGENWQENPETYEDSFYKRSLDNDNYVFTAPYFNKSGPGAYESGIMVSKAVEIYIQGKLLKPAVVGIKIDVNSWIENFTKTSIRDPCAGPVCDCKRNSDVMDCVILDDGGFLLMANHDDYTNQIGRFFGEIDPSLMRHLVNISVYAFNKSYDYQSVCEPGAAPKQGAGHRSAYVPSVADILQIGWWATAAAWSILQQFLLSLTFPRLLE
Sequence of Voltage-dependent calcium channel subunit alpha-2/delta-1 (Homo sapiens) (P54289 957-1103 limits assumed): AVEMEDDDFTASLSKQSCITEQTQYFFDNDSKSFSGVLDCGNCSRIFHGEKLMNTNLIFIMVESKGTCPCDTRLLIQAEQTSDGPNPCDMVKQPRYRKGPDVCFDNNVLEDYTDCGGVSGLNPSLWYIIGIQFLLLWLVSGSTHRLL

Sequence of Voltage-dependent calcium channel subunit alpha-2/delta-2 (Homo sapiens) (Q9NY47 19-1001 limits assumed): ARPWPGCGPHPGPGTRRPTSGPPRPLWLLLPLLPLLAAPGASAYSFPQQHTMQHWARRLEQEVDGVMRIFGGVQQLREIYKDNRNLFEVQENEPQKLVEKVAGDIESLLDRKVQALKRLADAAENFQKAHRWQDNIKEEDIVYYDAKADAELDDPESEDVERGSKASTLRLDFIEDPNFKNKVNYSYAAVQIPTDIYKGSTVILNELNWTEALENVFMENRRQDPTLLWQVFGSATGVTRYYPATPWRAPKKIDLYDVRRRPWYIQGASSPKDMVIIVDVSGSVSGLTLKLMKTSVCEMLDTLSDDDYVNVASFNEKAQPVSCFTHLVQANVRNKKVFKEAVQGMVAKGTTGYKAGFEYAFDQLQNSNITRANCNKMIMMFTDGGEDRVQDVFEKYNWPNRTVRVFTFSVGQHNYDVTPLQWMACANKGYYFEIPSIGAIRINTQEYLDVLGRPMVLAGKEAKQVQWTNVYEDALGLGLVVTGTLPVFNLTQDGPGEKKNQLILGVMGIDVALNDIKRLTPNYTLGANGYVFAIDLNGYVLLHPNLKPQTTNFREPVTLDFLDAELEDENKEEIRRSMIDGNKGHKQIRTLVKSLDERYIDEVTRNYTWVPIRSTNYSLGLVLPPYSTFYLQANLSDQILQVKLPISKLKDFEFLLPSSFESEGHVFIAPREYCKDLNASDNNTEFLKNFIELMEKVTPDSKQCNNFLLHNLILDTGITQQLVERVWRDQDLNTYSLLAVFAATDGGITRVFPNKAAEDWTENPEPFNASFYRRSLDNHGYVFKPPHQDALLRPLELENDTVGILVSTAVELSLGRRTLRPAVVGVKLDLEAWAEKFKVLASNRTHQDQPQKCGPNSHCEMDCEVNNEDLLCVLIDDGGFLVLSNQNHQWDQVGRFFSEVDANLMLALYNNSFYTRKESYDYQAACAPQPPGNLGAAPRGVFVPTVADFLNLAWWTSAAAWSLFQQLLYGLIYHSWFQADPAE
Sequence of Voltage-dependent calcium channel subunit alpha-2/delta-2 (Homo sapiens) (Q9NY47 1002-1150 limits assumed): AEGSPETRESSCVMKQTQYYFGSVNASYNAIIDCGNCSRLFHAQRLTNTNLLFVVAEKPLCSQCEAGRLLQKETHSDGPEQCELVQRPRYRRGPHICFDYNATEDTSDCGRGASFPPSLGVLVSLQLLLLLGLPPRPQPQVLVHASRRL

SMILES	pKi [1]	half-life [2] [min]	T1/2 [3] [h]	T1/2 [4] [h]
CCOC(=O)OC[C@H]1O[C@@H](Oc2nn(C(C)C)c(C)c2Cc2ccc(OC(C)C)cc2)[C@H](O)[C@@H](O)[C@@H]1O [REMOGLIFLOZIN ETABONATE]	7.91	120	–	–
CC(C)C[C@H](CN)CC(=O)O	–	–	1.5	1.5
CCC1=C[C@@H]2[C@H](C1)C[C@]2(CN)CC(=O)O	–	–	–	> 11
